Experimental data from patent US20110091540A1, “POLYMERIC COMPOSITIONS AND THEIR METHOD OF USE IN COMBINATION WITH ACTIVE AGENTS” (priority 2007, published 2011).

Experiment: Clinical trial of Example 11: fecal metal excretion and stool weight
Assay type: in vivo, human
Details: groups receiving mannitol with CLP; passage through the entire gastrointestinal tract
Procedure: For this clinical trial, an open-label, non-randomized, multiple-dose study in eighteen healthy subjects divided into six groups of three subjects in each group was conducted. Subjects were placed into one of six groups on day six, based upon the previous five days of stool weights, so that the average daily stool weight is approximately equal across groups.
CLP (milled) with and without mannitol (Groups 1, 2, 5 and 6) was in size 00 HPMC capsules that are uncoated. CLP (beads) and mannitol alone were supplied in bottles so that they may put into size 00 HPMC capsules (Groups 3 and 4).
CLP was administered according to treatment assignment (Groups 1, 2, 3, and 4) in a fasted state, at least one hour prior to each of four meals/snack and administered with water. Subjects were restricted from additional fluids for one hour pre and post dose. For Groups 5 and 6, CLP is administered in a fed state, thirty minutes following the end of a meal and evening snack, administered with water and without any fluid restriction.
Each sample was individually weighed and the color and consistency of the stool noted. The weights were added together to determine the total fecal weight resulting from each day's intake. The entire weight of stool between the color markers was also totaled separately for both the baseline period and the experimental period. […]

With OC[C@@H](O)[C@@H](O)[C@H](O)[C@H](O)CO [mannitol] the “Effect of mannitol on fluid removal (stool weight)” value was “does not increase fluid removal and may decrease fluid removal”.
